In PubChem BioAssay (NCI):
Where “and” joins values, the source holds several entries; their conditions need not be identical. Equal entries are not always repeated.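 In this assay, cells in 96-well plates receive the compound at five concentrations for 48 hours. Endpoints are linearly interpolated between the surrounding concentrations. GI50 marks 50% less growth. TGI denotes the concentration required for complete inhibition of growth.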

Tests used:
Assay in all cases: inhibition of tumour cell growth, NCI panel, 48 h
COLO 205 colon = test system: COLO 205 colon
HOP-92 NSCLC = test system: HOP-92 NSCLC
SK-MEL-28 melanoma = test system: SK-MEL-28 melanoma
SNB-19 CNS = test system: SNB-19 CNS
HCT-116 colon = test system: HCT-116 colon
NCI-H226 lung = test system: NCI-H226 lung
TK-10 renal = test system: TK-10 renal
HOP-62 NSCLC = test system: HOP-62 NSCLC
A549 NSCLC = test system: A549 NSCLC
RPMI-8226 leukemia = test system: RPMI-8226 leukemia

Row | Compound | TGI (COLO 205 colon) | TGI (HOP-92 NSCLC) | TGI (SK-MEL-28 melanoma) | TGI (SNB-19 CNS) | TGI (HCT-116 colon) | TGI (NCI-H226 lung) | TGI (TK-10 renal) | TGI (HOP-62 NSCLC) | TGI (A549 NSCLC) | GI50 (HOP-92 NSCLC) | GI50 (RPMI-8226 leukemia) | TGI (RPMI-8226 leukemia) | GI50 (SK-MEL-28 melanoma) | GI50 (SNB-19 CNS) | GI50 (HCT-116 colon) | GI50 (NCI-H226 lung) | GI50 (TK-10 renal) | GI50 (HOP-62 NSCLC) | GI50 (A549 NSCLC) | GI50 (COLO 205 colon)
1 | O=C1CC(O)C=C1Nc1ccc(Cl)cc1 (configuration not stated) | 22.3 µM | > 100 µM | > 100 µM | > 100 µM | > 100 µM | > 100 µM | > 100 µM | > 100 µM | 35.5 µM | – | – | – | – | – | – | – | – | – | – | –
2 | CN(C)c1cccc2c(S(=O)(=O)N[C@H]3CC[C@H]4[C@@H]5CCc6cc(O)ccc6[C@H]5CC[C@]34C)cccc12 | – | 7.64 µM | 5.89 µM | > 100 µM | 5.85 µM | 11.2 µM | 9.82 µM | 13.9 µM | 10.7 µM | 1.67 µM | 2.32 µM | 7.8 µM | 2.2 µM | 3.43 µM | 2.27 µM | 3.02 µM | 3.2 µM | 3.97 µM | 2.51 µM | –
3 | COC(=O)C1CC2(CC3=C1CCCC3)OCCO2 (configuration not stated) | > 100 µM | > 100 µM | > 100 µM | > 100 µM | > 100 µM | – | > 100 µM | > 100 µM | > 100 µM | – | – | > 100 µM | – | – | – | – | – | – | – | –
4 | CC[C@H](C)N(CCN)C(=O)c1cc2ccccc2c(-c2ccccc2Cl)n1 | 17.9 µM | – | 27 µM | 30.2 µM | 14.9 µM | 29.7 µM | 25.5 µM | 33.3 µM | > 100 µM | – | – | 32.4 µM | – | – | – | – | – | – | – | –
5 | O=C1C(=O)N(C(=O)c2ccc(Cl)c(Cl)c2)c2ccccc21 | > 100 µM | – | > 100 µM | > 100 µM | – | > 100 µM | > 100 µM | – | > 100 µM | – | – | > 100 µM | – | – | – | – | – | – | – | –
6 | COc1ccc(Cl)cc1Nc1nc(C(F)(F)F)ccc1C(=O)N/N=C/c1c(Cl)cccc1Cl | – | 38.4 µM | > 100 µM | > 100 µM | > 100 µM | > 100 µM | 50.8 µM | > 100 µM | > 100 µM | 3.46 µM | – | – | > 100 µM | 11.4 µM | 3.3 µM | 5.54 µM | 6.32 µM | 1.35 µM | > 100 µM | –
7 | N#Cc1c(Sc2ccccc2N)cccc1Sc1ccccc1N | – | – | – | – | – | – | – | – | – | 31 µM | 28.8 µM | – | – | 97.5 µM | 71.9 µM | 96.8 µM | – | – | 56.9 µM | 34.9 µM
8 | CCOC(=O)c1c2c(n3ccc(NC(=O)CCN4CCCC4)cc13)C(=O)c1ncccc1C2=O | – | 27.5 µM | 35.9 µM | 3.54 µM | 1.94 µM | 45.1 µM | 2.61 µM | 3.11 µM | 2.67 µM | 11.8 µM | 1.56 µM | 4.65 µM | 16.1 µM | 1.17 µM | 0.175 µM | 19 µM | 1.26 µM | 1.08 µM | 1.03 µM | –
9 | Cc1cc2c(c(C#N)c1C)NC(=O)CCC2=O | > 100 µM | – | > 100 µM | – | > 100 µM | – | – | > 100 µM | > 100 µM | – | – | > 100 µM | – | – | – | – | – | – | – | –
10 | COC(=O)N[C@H]1CCc2c(Br)c(OC)c(OC)c(OC)c2-c2ccc(SC)c(=O)cc21 | – | 5.17 µM | 25.1 µM | > 49.7 µM | 11.5 µM | 10.8 µM | > 85.9 µM | > 100 µM | > 52.6 µM | < 0.0171 µM | < 0.01 µM | 5.84 µM | 6.99 µM | < 0.01 µM | < 0.01 µM | < 0.01 µM | 9.63 µM | < 0.01 µM | < 0.01 µM | –
11 | N#Cc1cn(C2OC(CO)C(O)C2O)c2ncnc(N)c12 (configuration not stated) | – | 0.665 µM and 0.182 µM | – | – | > 100 µM | – | 0.0771 µM | – | > 450 µM | 0.000461 µM | 0.0303 µM and 0.045 µM and < 0.01 µM | – | 0.0329 µM | – | 0.0264 µM and < 0.01 µM | – | 0.000405 µM | 0.0533 µM | < 0.01 µM | –
12 | CC(=O)n1c(COS(C)(=O)=O)nc2ccccc21 | > 100 µM | > 100 µM | > 100 µM | > 100 µM | > 100 µM | > 100 µM | > 100 µM | > 100 µM | > 100 µM | – | – | – | – | – | – | – | – | – | – | –
13 | CNC(P(=O)([O-])[O-])P(=O)([O-])[O-].N.N.[Pt+2] | > 100 µM | – | > 100 µM | > 100 µM | > 100 µM | > 100 µM | > 100 µM | – | > 100 µM | – | – | – | > 100 µM | > 100 µM | > 100 µM | > 100 µM | > 100 µM | – | > 100 µM | > 100 µM
14 | Nc1nc(SCc2ccccn2)c2ncn(C3CCCC3)c2n1 | > 100 µM | – | > 100 µM | > 100 µM | > 100 µM | > 100 µM | > 100 µM | > 100 µM | > 100 µM | – | – | > 100 µM | – | – | – | – | – | – | – | –
15 | CC1=C(C(=O)Nc2c(C)cccc2C)C(c2ccc3c(c2)OCO3)C(C(=O)Nc2c(C)cccc2C)=C(C)N1 | 47.1 µM | – | 46 µM | 32 µM | 27.3 µM | 32.3 µM | 62.1 µM | 44 µM | 59 µM | – | – | – | – | – | – | – | – | – | – | –
16 | COc1ccc(-c2nc3sc(C)cn3c2/C=C/C(=O)c2cc(OC)c(OC)c(OC)c2)cc1 | > 100 µM | – | – | > 100 µM | > 100 µM | > 100 µM | > 100 µM | > 100 µM | > 100 µM | – | – | – | – | 4.55 µM | 3.8 µM | 4.12 µM | 5.55 µM | 4.28 µM | 3.37 µM | 4.7 µM
17 | Nc1ccn(CCOC(=O)c2ccccc2)c(=O)n1 | > 100 µM | > 100 µM | > 100 µM | – | > 100 µM | > 100 µM | > 100 µM | > 100 µM | > 100 µM | – | – | > 100 µM | – | – | – | – | – | – | – | –
18 | COc1cc(C2CC(c3ccc(C)cc3)=NN2C=O)ccc1Oc1ccnc2cc(Cl)ccc12 (configuration not stated) | > 50 µM | > 50 µM | > 50 µM | > 50 µM | > 50 µM | > 50 µM | – | 8.95 µM | > 50 µM | 9.1 µM | > 50 µM | > 50 µM | > 50 µM | 9.53 µM | 2.5 µM | 1.81 µM | – | 1.68 µM | > 50 µM | > 50 µM
19 | COc1cc(OC)c([C@@H]2OC(=O)C3C2C(=O)O[C@H]3c2cc(OC)c(OC)cc2OC)cc1OC (some centres not stated) | > 100 µM | > 10 µM | > 100 µM | > 100 µM | > 100 µM | – | – | > 100 µM | > 100 µM | – | – | > 100 µM | – | – | – | – | – | – | – | –
